The values that follow come from US20240254103A9, “NOVEL PYRIMIDINE DERIVATIVE, AND COMPOSITION FOR PREVENTING OR TREATING NEURODEGENERATIVE DISEASES AND CANCER, COMPRISING SAME” (WHAN IN PHARMACEUTICAL CO., LTD., priority 2020, published 2024).

Where only a bound is given, the exact number is not on record here.

In one assay the target is T1, mutant LRRK2 (G2019S) (Homo sapiens, UniProt Q5S007, G2019S).
T1 construct: DNA tag for qPCR detection (not a peptide; the protein part that carries it is not described); made in house; host or cells: HEK 293 cells (the same paragraph also describes T7 phage grown in E. coli BL21)
Nature of the assay: Inhibitory activity against LRRK2: competition binding to ligand-affinity beads, DNA-tagged kinase quantitated by qPCR. As to conditions: 100 nM compound; % of ctrl; read-out: Remaining kinase activity(%) at 100 nM LRRK2(G2019Smutant). The method in brief:
(§1)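 Human LRRK2 H970–E2527, wild type or G2019S, was expressed as DNA-tagged kinase (T7 phage in E. coli or HEK293) and competed for 1 h against a biotinylated ligand on streptavidin beads. Bound kinase was eluted with 0.5 µM free ligand and quantified by qPCR. Values are % of control at 100 nM (both forms) and at 10 and 50 nM (wild type).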
(Quantitative PCR measures a nucleic acid by following its amplification.)

In a further assay the target is T2, wild-type LRRK2 (Homo sapiens, UniProt Q5S007).
T2 construct: DNA tag for qPCR detection (not a peptide; the protein part that carries it is not described); made in house; host or cells: HEK 293 cells (the same paragraph also describes T7 phage grown in E. coli BL21)
The assay is described as above. As to conditions: 100 nM compound; % of ctrl; read-out: Remaining kinase activity(%) at 100 nM LRRK2(WT). In short, it runs like this: as §1

T1 sequence (Q5S007 970-2527 G2019S): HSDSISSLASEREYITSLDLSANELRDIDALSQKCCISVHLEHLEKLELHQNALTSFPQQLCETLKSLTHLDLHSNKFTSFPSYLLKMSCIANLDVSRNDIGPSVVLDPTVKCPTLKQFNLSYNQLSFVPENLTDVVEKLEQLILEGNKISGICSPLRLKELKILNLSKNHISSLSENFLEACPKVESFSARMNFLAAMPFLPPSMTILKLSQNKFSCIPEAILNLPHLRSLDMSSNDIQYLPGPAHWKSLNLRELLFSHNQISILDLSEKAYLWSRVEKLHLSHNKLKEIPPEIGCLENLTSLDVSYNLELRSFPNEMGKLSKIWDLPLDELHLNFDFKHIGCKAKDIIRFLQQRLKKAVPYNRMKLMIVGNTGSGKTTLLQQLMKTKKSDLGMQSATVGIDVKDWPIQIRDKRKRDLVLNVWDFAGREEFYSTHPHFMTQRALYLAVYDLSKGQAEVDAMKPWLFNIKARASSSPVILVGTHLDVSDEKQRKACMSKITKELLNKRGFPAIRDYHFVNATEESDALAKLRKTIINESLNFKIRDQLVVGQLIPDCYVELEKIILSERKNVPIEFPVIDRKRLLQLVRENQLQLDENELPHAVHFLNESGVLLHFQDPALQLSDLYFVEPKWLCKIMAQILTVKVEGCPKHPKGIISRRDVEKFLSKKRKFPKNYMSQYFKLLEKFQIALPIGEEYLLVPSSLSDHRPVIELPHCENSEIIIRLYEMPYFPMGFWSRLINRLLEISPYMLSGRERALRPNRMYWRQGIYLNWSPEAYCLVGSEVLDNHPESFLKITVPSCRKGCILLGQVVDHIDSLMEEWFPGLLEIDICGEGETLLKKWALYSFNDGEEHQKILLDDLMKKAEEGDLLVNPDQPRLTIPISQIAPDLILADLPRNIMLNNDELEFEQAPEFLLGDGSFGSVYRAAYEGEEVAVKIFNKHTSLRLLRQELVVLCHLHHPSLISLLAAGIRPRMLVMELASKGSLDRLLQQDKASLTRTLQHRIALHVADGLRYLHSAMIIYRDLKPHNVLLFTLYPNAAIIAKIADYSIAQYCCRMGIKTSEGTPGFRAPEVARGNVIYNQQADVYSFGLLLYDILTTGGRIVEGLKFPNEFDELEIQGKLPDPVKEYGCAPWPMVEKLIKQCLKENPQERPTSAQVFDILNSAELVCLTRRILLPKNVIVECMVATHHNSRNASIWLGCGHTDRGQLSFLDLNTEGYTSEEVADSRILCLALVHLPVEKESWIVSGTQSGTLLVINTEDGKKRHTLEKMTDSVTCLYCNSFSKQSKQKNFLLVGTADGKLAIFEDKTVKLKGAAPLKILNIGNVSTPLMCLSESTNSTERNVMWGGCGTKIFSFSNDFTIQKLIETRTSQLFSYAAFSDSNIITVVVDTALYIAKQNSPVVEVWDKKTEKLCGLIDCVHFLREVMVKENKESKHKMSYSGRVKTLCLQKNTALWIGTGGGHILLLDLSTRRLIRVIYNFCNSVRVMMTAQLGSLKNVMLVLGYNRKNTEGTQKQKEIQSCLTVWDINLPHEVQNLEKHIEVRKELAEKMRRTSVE
T2 sequence (Q5S007 970-2527): as the sequence (Q5S007 970-2527 G2019S) above, with S1050G counted along it

As for `COc1cc(C(=O)N2CCOCC2)ccc1Nc1ncc(Cl)c(-c2cnn(S(C)(=O)=O)c2)n1` [Compound 10, (4-((5-chloro-4-(1-(methylsulfonyl)-1H-pyrazol-4-yl)pyrimidin-2-yl)amino)-3-methoxyphenyl)(morpholino)methanone], the remaining binding at 0.1 µM on mutant LRRK2 (G2019S) is less than 10%; at wild-type LRRK2 it was less than 30%.

On to `COc1cc(C(=O)N2CCOCC2)ccc1Nc1ncc(Cl)c(-c2cnn(C(F)F)c2)n1` [Compound 15, (4-((5-chloro-4-(1-(difluoromethyl)-1H-pyrazol-4-yl)pyrimidin-2-yl)amino)-3-methoxyphenyl)(morpholino)methanone], for which the remaining binding at 0.1 µM on mutant LRRK2 (G2019S) is less than 30%; on wild-type LRRK2, less than 50%.

As to `COCn1cc(-c2nc(Nc3ccc(C(=O)N4CCOCC4)cc3OC)ncc2Cl)cn1` [Compound 16, (4-((5-chloro-4-(1-(methoxymethyl)-1H-pyrazol-4-yl)pyrimidin-2-yl)amino)-3-methoxyphenyl)(morpholino)methanone], the remaining binding at 0.1 µM on mutant LRRK2 (G2019S) is less than 10%; at wild-type LRRK2, less than 30%.

Regarding `COc1ccc(Cn2cc(-c3nc(Nc4ccc(C(=O)N5CCOCC5)cc4OC)ncc3Cl)cn2)cc1` [Compound 17, (4-((5-chloro-4-(1-(4-methoxybenzyl)-1H-pyrazol-4-yl)pyrimidin-2-yl)amino)-3-methoxyphenyl)(morpholino)methanone], the results for the remaining binding at 0.1 µM on mutant LRRK2 (G2019S) and at wild-type LRRK2 were less than 50% and less than 30%, respectively.

As for `COc1cc(C(=O)N2CCOCC2)ccc1Nc1ncc(Cl)c(-c2cn[nH]c2)n1` [Compound 18, (4-((5-chloro-4-(1H-pyrazol-4-yl)pyrimidin-2-yl)amino)-3-methoxyphenyl)(morpholino)methanone], the remaining binding at 0.1 µM at mutant LRRK2 (G2019S) and at wild-type LRRK2 was less than 30% each time.

Take `COc1cc(C(=O)N2CCC(N3CCN(C)CC3)CC2)ccc1Nc1ncc(Cl)c(-c2cnn(C)c2)n1` [Compound 19, (4-((5-chloro-4-(1-methyl-1H-pyrazol-4-yl)pyrimidin-2-yl)amino)-3-methoxyphenyl)(4-(4-methylpiperazin-1-yl)piperidin-1-yl)methanone]: the remaining binding at 0.1 µM on mutant LRRK2 (G2019S) and on wild-type LRRK2 was less than 10% throughout.

On to `COc1cc(C(=O)N2CCOCC2)ccc1Nc1ncc(Cl)c(-c2cnn(C3CCOCC3)c2)n1` [Compound 20, (4-((5-chloro-4-(1-(tetrahydro-2H-pyran-4-yl)-1H-pyrazol-4-yl)pyrimidin-2-yl)amino)-3-methoxyphenyl)(morpholino)methanone], for which the remaining binding at 0.1 µM on mutant LRRK2 (G2019S) and on wild-type LRRK2 was less than 10% throughout.

With `COCCN(C)C(=O)c1ccc(Nc2ncc(Cl)c(-c3cnn(C)c3)n2)c(OC)c1` [Compound 21, 4-((5-chloro-4-(1-methyl-1H-pyrazol-4-yl)pyrimidin-2-yl)amino)-3-methoxy-N-(2-methoxyethyl)-N-methylbenzamide], the remaining binding at 0.1 µM at mutant LRRK2 (G2019S) and on wild-type LRRK2 was less than 30% in each case.

With `COc1cc(C(=O)N2CCCC2)ccc1Nc1ncc(Cl)c(-c2cnn(C)c2)n1` [Compound 22, (4-((5-chloro-4-(1-methyl-1H-pyrazol-4-yl)pyrimidin-2-yl)amino)-3-methoxyphenyl)(pyrrolidin-1-yl)methanone], the remaining binding at 0.1 µM is less than 50% at mutant LRRK2 (G2019S) and less than 30% on wild-type LRRK2.

Turning to `CCN(CCOC)C(=O)c1ccc(Nc2ncc(Cl)c(-c3cnn(C)c3)n2)c(OC)c1` [Compound 23, 4-((5-chloro-4-(1-methyl-1H-pyrazol-4-yl)pyrimidin-2-yl)amino)-N-ethyl-3-methoxy-N-(2-methoxyethyl)benzamide], the remaining binding at 0.1 µM at mutant LRRK2 (G2019S) and on wild-type LRRK2 was less than 50% each time.

On to `COc1cc(C(=O)NC(C)(C)CO)ccc1Nc1ncc(Cl)c(-c2cnn(C)c2)n1` [Compound 24, 4-((5-chloro-4-(1-methyl-1H-pyrazol-4-yl)pyrimidin-2-yl)amino)-N-(1-hydroxy-2-methylpropan-2-yl)-3-methoxybenzamide], for which the remaining binding at 0.1 µM was less than 50% at mutant LRRK2 (G2019S) and less than 30% at wild-type LRRK2.

Turning to `COc1cc(C(=O)NC(C)(C)C)ccc1Nc1ncc(Cl)c(-c2cnn(C)c2)n1` [Compound 25, N-(tert-butyl)-4-((5-chloro-4-(1-methyl-1H-pyrazol-4-yl)pyrimidin-2-yl)amino)-3-methoxybenzamide], the remaining binding at 0.1 µM at mutant LRRK2 (G2019S) was less than 50%; at wild-type LRRK2, less than 30%.

Regarding `COc1cc(C(=O)NCC(C)(C)O)ccc1Nc1ncc(Cl)c(-c2cnn(C)c2)n1` [Compound 26, 4-((5-chloro-4-(1-methyl-1H-pyrazol-4-yl)pyrimidin-2-yl)amino)-N-(2-hydroxy-2-methylpropyl)-3-methoxybenzamide], the remaining binding at 0.1 µM on mutant LRRK2 (G2019S) and at wild-type LRRK2 was less than 50% each time.

Take `COc1cc(C(=O)N2CCOCC2)ccc1Nc1ncc(Cl)c(-c2cnn(C(C)(C)CC#N)c2)n1` [Compound 27, 3-(4-(5-chloro-2-((2-methoxy-4-(morpholine-4-carbonyl)phenyl)amino)pyrimidin-4-yl)-1H-pyrazol-1-yl)-3-methylbutanenitrile]: the remaining binding at 0.1 µM on mutant LRRK2 (G2019S) and at wild-type LRRK2 was less than 10% throughout.

`COCCn1cc(-c2nc(Nc3ccc(C(=O)N4CCOCC4)cc3OC)ncc2Cl)cn1` [Compound 28, (4-((5-chloro-4-(1-(2-methoxyethyl)-1H-pyrazol-4-yl)pyrimidin-2-yl)amino)-3-methoxyphenyl)(morpholino)methanone]: the remaining binding at 0.1 µM on mutant LRRK2 (G2019S) and at wild-type LRRK2 was less than 30% throughout.

Regarding `COc1cc(C(=O)N2CCOCC2)ccc1Nc1ncc(C(F)(F)F)c(-c2cnn(C3CCOCC3)c2)n1` [Compound 29, (3-methoxy-4-((4-(1-(tetrahydro-2H-pyran-4-yl)-1H-pyrazol-4-yl)-5-(trifluoromethyl)pyrimidin-2-yl)amino)phenyl)(morpholino)methanone], the remaining binding at 0.1 µM at mutant LRRK2 (G2019S) is less than 30%; at wild-type LRRK2, less than 50%.

For `COc1cc(C(=O)N2CCC(N3CCN(C)CC3)CC2)ccc1Nc1ncc(C(F)(F)F)c(-c2cnn(C)c2)n1` [Compound 31, (3-methoxy-4-((4-(1-methyl-1H-pyrazol-4-yl)-5-(trifluoromethyl)pyrimidin-2-yl)amino)phenyl)(4-(4-methylpiperazin-1-yl)piperidin-1-yl)methanone], the remaining binding at 0.1 µM was less than 30% on mutant LRRK2 (G2019S) and less than 10% at wild-type LRRK2.

Turning to `COc1cc(C(=O)N2CCC3(CC2)COC3)ccc1Nc1ncc(Cl)c(-c2cnn(C)c2)n1` [Compound 32, (4-((5-chloro-4-(1-methyl-1H-pyrazol-4-yl)pyrimidin-2-yl)amino)-3-methoxyphenyl)(2-oxa-7-azaspiro[3.5]nonan-7-yl)methanone], the remaining binding at 0.1 µM at mutant LRRK2 (G2019S) was less than 30%; at wild-type LRRK2 it was less than 50%.

`COc1cc(C(=O)N2CC3(CCO3)C2)ccc1Nc1ncc(Cl)c(-c2cnn(C)c2)n1` [Compound 33, (4-((5-chloro-4-(1-methyl-1H-pyrazol-4-yl)pyrimidin-2-yl)amino)-3-methoxyphenyl)(1-oxa-6-azaspiro[3.3]heptan-6-yl)methanone]: the remaining binding at 0.1 µM on mutant LRRK2 (G2019S) is less than 50%; on wild-type LRRK2, less than 30%.
